Structures can show the parent of a compound that is named as a salt.
Tested on: HMOX1
Experiment: HMOX1 Protein Assay (immunostaining of HO-1 in NHLF cells, GE InCell 1000)
Type: cell-based
Conditions: Homo sapiens, fold change above DMSO treated cells, 16 h; for fold induction at 5 µM: 5 μM compound; for fold induction at 3 µM: 3 μM compound (asterisk)
Method in brief: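 NHLF cells seeded overnight in FGM-2, then exposed to compound or DMSO vehicle for 16 h, fixed, and immunostained for HO-1 with Hoechst nuclear counterstain; imaged on InCell 1000. Values are fold change over DMSO-treated cells, generally at 5 μM (0.8% DMSO), with asterisked entries at 3 μM.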

With `CN1CCC(NC(=O)CNC(=O)c2ccc3c(c2)nc(Nc2nc4ccc(Cl)cc4s2)n3C)CC1` [Example 386, 2-(6-Chloro-benzothiazol-2-ylamino)-1-methyl-1H-benzoimidazole-5-carboxylic acid [(1-methyl-piperidin-4-ylcarbamoyl)-methyl]-amide] the fold induction at 5 µM was 58.3.

Compound `Cn1c(Nc2nc3ccc(Cl)cc3s2)nc2cc(C(=O)NCC(=O)N[C@@H]3CCCNC3)ccc21` [Example 387, 2-(6-Chloro-benzothiazol-2-ylamino)-1-methyl-1H-benzoimidazole-5-carboxylic acid ((R)-piperidin-3-ylcarbamoylmethyl)-amide hydrochloride] has a fold induction at 5 µM of 19.9.

Compound `CN1CCC[C@@H](NC(=O)CNC(=O)c2ccc3c(c2)nc(Nc2nc4ccc(Cl)cc4s2)n3C)C1` [Example 388, 2-(6-Chloro-benzothiazol-2-ylamino)-1-methyl-1H-benzoimidazole-5-carboxylic acid [((R)-1-methyl-piperidin-3-ylcarbamoyl)-methyl]-amide] has a fold induction at 5 µM of 22.

Work on `Cn1c(Nc2nc3ccc(OC(F)(F)F)cc3s2)nc2cc(C(=O)NCC(=O)NCc3ccc(O)cc3)ccc21` [Example 389, 1-Methyl-2-(6-trifluoromethoxy-benzothiazol-2-ylamino)-1H-benzoimidazole-5-carboxylic acid [(4-hydroxy-benzylcarbamoyl)-methyl]-amide] yielded a fold induction at 5 µM of 38.6.

`CN(CCO)C(=O)CNC(=O)c1ccc2c(c1)nc(Nc1nc3ccc(OC(F)(F)F)cc3s1)n2C` [Example 390, 1-Methyl-2-(6-trifluoromethoxy-benzothiazol-2-ylamino)-1H-benzoimidazole-5-carboxylic acid {[(2-hydroxy-ethyl)-methyl-carbamoyl]-methyl}-amide] showed a fold induction at 5 µM of 46.4.

For `CN(CCO)C(=O)CNC(=O)c1ccc2c(c1)nc(Nc1nc3ccc(Cl)cc3s1)n2C` [Example 391, 2-(6-Chloro-benzothiazol-2-ylamino)-1-methyl-1H-benzoimidazole-5-carboxylic acid {[(2-hydroxy-ethyl)-methyl-carbamoyl]-methyl}-amide], the fold induction at 5 µM was 38.6.

For `Cn1c(Nc2nc3ccc(OC(F)(F)F)cc3s2)nc2cc(C(=O)NCC(=O)N(CCO)CCO)ccc21` [Example 392, 1-Methyl-2-(6-trifluoromethoxy-benzothiazol-2-ylamino)-1H-benzoimidazole-5-carboxylic acid {[bis-(2-hydroxy-ethyl)-carbamoyl]-methyl}-amide], the fold induction at 5 µM was 24.9.

With `CN(C(=O)CNC(=O)c1ccc2c(c1)nc(Nc1nc3ccc(Cl)cc3s1)n2C)C1CCOCC1` [Example 393, 2-(6-Chloro-benzothiazol-2-ylamino)-1-methyl-1H-benzoimidazole-5-carboxylic acid {[methyl-(tetrahydro-pyran-4-yl)-carbamoyl]-methyl}-amide] the fold induction at 5 µM was 61.3.

In the case of `CN(C(=O)CNC(=O)c1ccc2c(c1)nc(Nc1nc3ccc(Cl)cc3s1)n2C)C1CCNC1` (stereo not drawn) [Example 394, 2-(6-Chloro-benzothiazol-2-ylamino)-1-methyl-1H-benzoimidazole-5-carboxylic acid [(methyl-pyrrolidin-3-yl-carbamoyl)-methyl]-amide hydrochloride], the fold induction at 5 µM is reported as 37.6.

`CN1CCC(N(C)C(=O)CNC(=O)c2ccc3c(c2)nc(Nc2nc4ccc(Cl)cc4s2)n3C)C1` (stereo not drawn) [Example 395, 2-(6-Chloro-benzothiazol-2-ylamino)-1-methyl-1H-benzoimidazole-5-carboxylic acid {[methyl-(1-methyl-pyrrolidin-3-yl)-carbamoyl]-methyl}-amide] was tested, and the fold induction at 5 µM was 72.

`CN(C(=O)CNC(=O)c1ccc2c(c1)nc(Nc1nc3ccc(Cl)cc3s1)n2C)C1CCCNC1` (stereo not drawn) [Example 396, 2-(6-Chloro-benzothiazol-2-ylamino)-1-methyl-1H-benzoimidazole-5-carboxylic acid [(methyl-piperidin-3-yl-carbamoyl)-methyl]-amide hydrochloride] was tested, and the fold induction at 5 µM was 36.

Work on `Cn1c(Nc2nc3ccc(Cl)cc3s2)nc2cc(C(=O)NCC(=O)N3CCCC3)ccc21` [Example 397, 2-(6-Chloro-benzothiazol-2-ylamino)-1-methyl-1H-benzoimidazole-5-carboxylic acid (2-oxo-2-pyrrolidin-1-yl-ethyl)-amide] yielded a fold induction at 3 µM of 25.

In the case of `Cn1c(Nc2nc3ccc(OC(F)(F)F)cc3s2)nc2cc(C(=O)NCC(=O)N3CCC(O)C3)ccc21` (stereo not drawn) [Example 398, 1-Methyl-2-(6-trifluoromethoxy-benzothiazol-2-ylamino)-1H-benzoimidazole-5-carboxylic acid [2-(3-hydroxy-pyrrolidin-1-yl)-2-oxo-ethyl]-amide], the fold induction at 5 µM is reported as 31.7.

In the case of `Cn1c(Nc2nc3ccc(Cl)cc3s2)nc2cc(C(=O)NCC(=O)N3CCC(O)C3)ccc21` (stereo not drawn) [Example 399, 2-(6-Chloro-benzothiazol-2-ylamino)-1-methyl-1H-benzoimidazole-5-carboxylic acid [2-(3-hydroxy-pyrrolidin-1-yl)-2-oxo-ethyl]-amide], the fold induction at 5 µM is reported as 20.8.

Compound `Cn1c(Nc2nc3ccc(Cl)cc3s2)nc2cc(C(=O)NCC(=O)N3CC[C@@H](O)C3)ccc21` [Example 400, 2-(6-Chloro-benzothiazol-2-ylamino)-1-methyl-1H-benzoimidazole-5-carboxylic acid [2-((R)-3-hydroxy-pyrrolidin-1-yl)-2-oxo-ethyl]-amide] has a fold induction at 3 µM of 15.

Work on `Cn1c(Nc2nc3ccc(Cl)cc3s2)nc2cc(C(=O)NCC(=O)N3CC[C@H](O)C3)ccc21` [Example 401, 2-(6-Chloro-benzothiazol-2-ylamino)-1-methyl-1H-benzoimidazole-5-carboxylic acid [2-((S)-3-hydroxy-pyrrolidin-1-yl)-2-oxo-ethyl]-amide] yielded a fold induction at 3 µM of 27.

Compound `Cn1c(Nc2nc3ccc(C(F)(F)F)cc3s2)nc2cc(C(=O)NCC(=O)N3CC[C@@H](O)C3)ccc21` [Example 402, 1-Methyl-2-(6-trifluoromethyl-benzothiazol-2-ylamino)-1H-benzoimidazole-5-carboxylic acid [2-((R)-3-hydroxy-pyrrolidin-1-yl)-2-oxo-ethyl]-amide] has a fold induction at 3 µM of 24.

`Cn1c(Nc2nc3ccc(C(F)(F)F)cc3s2)nc2cc(C(=O)NCC(=O)N3CC[C@H](O)C3)ccc21` [Example 403, 1-Methyl-2-(6-trifluoromethyl-benzothiazol-2-ylamino)-1H-benzoimidazole-5-carboxylic acid [2-((S)-3-hydroxy-pyrrolidin-1-yl)-2-oxo-ethyl]-amide] gave a fold induction at 3 µM of 24.8.

Compound `COCCn1c(Nc2nc3ccc(Cl)cc3s2)nc2cc(C(=O)NCC(=O)N3CC[C@@H](O)C3)ccc21` [Example 404, 2-(6-Chloro-benzothiazol-2-ylamino)-1-(2-methoxy-ethyl)-1H-benzoimidazole-5-carboxylic acid [2-((R)-3-hydroxy-pyrrolidin-1-yl)-2-oxo-ethyl]-amide] has a fold induction at 5 µM of 26.1.

Compound `COCCn1c(Nc2nc3ccc(Cl)cc3s2)nc2cc(C(=O)NCC(=O)N3CC[C@H](O)C3)ccc21` [Example 405, 2-(6-Chloro-benzothiazol-2-ylamino)-1-(2-methoxy-ethyl)-1H-benzoimidazole-5-carboxylic acid [2-((S)-3-hydroxy-pyrrolidin-1-yl)-2-oxo-ethyl]-amide] has a fold induction at 5 µM of 21.4.

`Cn1c(Nc2nc3ccc(OC(F)(F)F)cc3s2)nc2cc(C(=O)NCC(=O)N3CCC[C@H]3CO)ccc21` [Example 406, 1-Methyl-2-(6-trifluoromethoxy-benzothiazol-2-ylamino)-1H-benzoimidazole-5-carboxylic acid [2-((S)-2-hydroxymethyl-pyrrolidin-1-yl)-2-oxo-ethyl]-amide] gave a fold induction at 5 µM of 31.

`Cn1c(Nc2nc3ccc(OC(F)(F)F)cc3s2)nc2cc(C(=O)NCC(=O)N3C[C@H](O)[C@@H](O)C3)ccc21` [Example 407, 1-Methyl-2-(6-trifluoromethoxy-benzothiazol-2-ylamino)-1H-benzoimidazole-5-carboxylic acid [2-((3S,4S)-3,4-dihydroxy-pyrrolidin-1-yl)-2-oxo-ethyl]-amide] showed a fold induction at 5 µM of 7.73.

`CO[C@@H]1CCN(C(=O)CNC(=O)c2ccc3c(c2)nc(Nc2nc4ccc(Cl)cc4s2)n3C)C1` [Example 408, 2-(6-Chloro-benzothiazol-2-ylamino)-1-methyl-1H-benzoimidazole-5-carboxylic acid [2-((R)-3-methoxy-pyrrolidin-1-yl)-2-oxo-ethyl]-amide] was tested, and the fold induction at 3 µM was 25.

In the case of `CO[C@H]1CCN(C(=O)CNC(=O)c2ccc3c(c2)nc(Nc2nc4ccc(Cl)cc4s2)n3C)C1` [Example 409, 2-(6-Chloro-benzothiazol-2-ylamino)-1-methyl-1H-benzoimidazole-5-carboxylic acid [2-((S)-3-methoxy-pyrrolidin-1-yl)-2-oxo-ethyl]-amide], the fold induction at 3 µM is reported as 29.

Work on `CO[C@H]1CCN(C(=O)CNC(=O)c2ccc3c(c2)nc(Nc2nc4ccc(C(F)(F)F)cc4s2)n3C)C1` [Example 410, 1-Methyl-2-(6-trifluoromethyl-benzothiazol-2-ylamino)-1H-benzoimidazole-5-carboxylic acid [2-((S)-3-methoxy-pyrrolidin-1-yl)-2-oxo-ethyl]-amide] yielded a fold induction at 3 µM of 24.7.

`Cn1c(Nc2nc3ccc(Cl)cc3s2)nc2cc(C(=O)NCC(=O)N3CC[C@H](N)C3)ccc21` [Example 411, 2-(6-Chloro-benzothiazol-2-ylamino)-1-methyl-1H-benzoimidazole-5-carboxylic acid [2-((S)-3-amino-pyrrolidin-1-yl)-2-oxo-ethyl]-amide hydrochloride] showed a fold induction at 5 µM of 16.

`Cn1c(Nc2nc3ccc(OC(F)(F)F)cc3s2)nc2cc(C(=O)NCC(=O)N3CC[C@H](N)C3)ccc21` [Example 412, 1-Methyl-2-(6-trifluoromethoxy-benzothiazol-2-ylamino)-1H-benzoimidazole-5-carboxylic acid [2-((S)-3-amino-pyrrolidin-1-yl)-2-oxo-ethyl]-amide hydrochloride] gave a fold induction at 5 µM of 47.6.
